The text below walks through data of the RepoRT retention time repository (doi:10.1016/j.foodchem.2015.11.070).

This data set can be described thus: Thermo Scientific Hypersil GOLD aQ, 100 × 2.1 mm, 1.9 µm, 30 °C, 0.3 mL/min, estimated dead time 0.73 min; A: water + 0.01% formic acid + 4 mM ammonium formate; B: methanol + 0.01% formic acid + 4 mM ammonium formate; gradient (min/%B) 0/5 1/5 8/100 12/100. As to conditions: stereoisomer not certain.
Take `COc1cc2c(c3oc(=O)c4c(c13)CCOC4=O)C1C=COC1O2` (configuration not stated): the LC retention time was 8 min. In the case of `CCS(=O)CCSP(=O)(OC)OC` (configuration not stated) it was 6.04 min; in that of `CCN(CC)c1nc(C)cc(OP(=S)(OC)OC)n1`, 10.3 min. With `CON=C(C(=O)OC)c1ccccc1COc1ccccc1C`, the LC retention time is 10.1 min. Then `COP(N)(=S)Oc1ccccc1C(=O)OC(C)C` (configuration not stated), with 9.04 min; and `COP(N)(=O)SC` (configuration not stated), with 1.58 min; and `COC(=O)c1sccc1S(=O)(=O)NC(=O)Nc1nc(C)nc(OC)n1`, with 8.32 min. For `COC(=O)NC(=S)Nc1ccccc1NC(=S)NC(=O)OC`, the LC retention time was 8.31 min. For `CNC(=O)ON=C(C)C(C)S(C)=O` (configuration not stated), the LC retention time was 3.06 min.

As to `CC(C)N1C(=O)c2ccccc2NS1(=O)=O`, the LC retention time was 8.26 min.

As to `CCNc1nc(NC(C)(C)C)nc(OC)n1`, the LC retention time is 8.88 min. Then `CNC(=O)ON=C(CSC)C(C)(C)C`, with 8.21 min. In the case of `CCOP(=O)(NC(C)C)Oc1ccc(S(C)=O)c(C)c1` (configuration not stated) it was 8.44 min; in that of `CCSCc1ccccc1OC(=O)NC`, 8.76 min; in that of `CNC(=O)CSP(=O)(OC)OC`, 1.79 min. In the case of `COP(=S)(OC)Oc1ccc(SC)c(C)c1` it was 10.2 min; in that of `CCOc1cc(OP(=S)(OC)OC)nc(CC)n1`, 10.2 min. In the case of `CNC(=O)Oc1cc(C)c(SC)c(C)c1`, the LC retention time is 8.76 min. For `CCOP(=O)(SC(C)CC)N1CCSC1=O` (configuration not stated), the LC retention time was 8.81 min. Then `C=CC=CCC1=C(C)C(OC(=O)C2C(C=C(C)C)C2(C)C)CC1=O` (configuration not stated), with 11 min. In the case of `CCNc1nc(NC(C)(C)C)nc(SC)n1` it was 9.65 min.

In the case of `CCOC(=O)NCCOc1ccc(Oc2ccccc2)cc1`, the LC retention time is 9.38 min.

Consider `CC(C)c1cc(Oc2ccccc2)cc(C(C)C)c1NC(=S)NC(C)(C)C`, for which the LC retention time is 11 min. Then `CNC(=O)ON=C(CS(C)(=O)=O)C(C)(C)C`, with 6.92 min; and `COC(=O)C(C)N(C(=O)c1ccco1)c1c(C)cccc1C` (configuration not stated), with 9.38 min. Then `Cc1nn(C)c(Oc2ccccc2)c1C=NOCc1ccc(C(=O)OC(C)(C)C)cc1`, with 11.2 min; and `COC(=O)C=C(C)OP(=O)(OC)OC`, with 7.66 min; and `COCCOc1ccccc1S(=O)(=O)NC(=O)Nc1nc(OC)nc(OC)n1`, with 8.14 min.

On to `CCOP(=S)(OCC)Oc1ccc(S(C)=O)cc1` (configuration not stated), for which the LC retention time was 9.1 min. Then `Cc1cc(C)nc(Nc2ccccc2)n1`, with 9.6 min; and `CC(C)N1C(=O)N(c2ccccc2)CSC1=NC(C)(C)C`, with 10.7 min; and `COC(=O)Nc1nc2ccccc2[nH]1`, with 6.3 min. In the case of `CNC(=O)Oc1cccc2ccccc12` it was 8.61 min; in that of `CC1(C)C(C(=O)OC(C#N)c2cccc(Oc3ccccc3)c2)C1(C)C` (configuration not stated), 11 min. In the case of `CCC(C)C1OC2(C=CC1C)CC1CC(CC=C(C)C(OC3CC(OC)C(OC4CC(OC)C(NC)C(C)O4)C(C)O3)C(C)C=CC=C3COC4C(O)C(C)=CC(C(=O)O1)C34O)O2` (configuration not stated) it was 11.9 min; in that of `CCNc1nc(NC(C)C)nc(SC)n1`, 9.18 min. For `CCOP(=S)(OCC)SCCSCC`, the LC retention time was 10.4 min.

For `CNC(=O)ON=C(C)C(C)SC` (configuration not stated), the LC retention time is 7.89 min. In the case of `C=C(C)C1Cc2c(ccc3c2OC2COc4cc(OC)c(OC)cc4C2C3=O)O1` (configuration not stated) it was 10.3 min. On to `CNC(=O)Oc1cccc2c1OC(C)(C)C2O` (configuration not stated), for which the LC retention time was 7.11 min. For the molecule `CC(COc1ccc(Oc2ccccc2)cc1)Oc1ccccn1` (configuration not stated), the LC retention time is 10.9 min.

Consider `CCCCOCCOCCOCc1cc2c(cc1CCC)OCO2`, for which the LC retention time was 10.8 min.
